Results published in ChEMBL document CHEMBL1649449, “Antifungal activities of natural and synthetic iron chelators alone and in combination with azole and polyene antibiotics against Aspergillus fumigatus” (Antimicrob Agents Chemother, 2009).

Test system: Aspergillus fumigatus
Assay: Antifungal activity against Aspergillus fumigatus B5233 conidia after 16 hrs by fluorescence-based microplate assay at pH 7.2
Format: functional, organism-based
Details: B5233, 16 h

Compound: Cc1cc(C2CCCCC2)n(O)c(=O)c1 [CICLOPIROX]
- IC50: 4220 nM

Compound: Cc1c(O)c(=O)ccn1C [DEFERIPRONE]
- IC50: 1290 nM
